Experimental data reported in patent publication US10988523B2, “Modified lipidated Relaxin B chain peptides and their therapeutic use” (Sanofi, priority 2018, dated 2021).
*1 amine or outer side, *2 acyl side, *3 side chain or, on linkers, in order; H or OH if unused. Where a SMILES comes first, the peptide text is derived from it. Side-chain parts run from the residue outwards. [ ]: non-standard residue; d: D form. The star is where a group is joined. PEG12 = NCCOCCOCCOCCOCCOCCOCCOCCOCCOCCOCCOCCOCCC(=O)O; γGlu = O=C(O)[C@H](CCC(=O)[*:2])N[*:1]; 1Nal = N[C@@H](Cc1cccc2ccccc12)C(=O)O; Stearoyl = CCCCCCCCCCCCCCCCCC(=O)*; Palmitoyl = CCCCCCCCCCCCCCCC(=O)*; αMeS = C[C@](N)(CO)C(=O)O; Nle = CCCC[C@H](N)C(=O)O; AEEA = NCCOCCOCC(=O)O; Aib = CC(C)(N)C(=O)O

Legend:
RXFP1 = biological target: T1, RXFP1 (Homo sapiens, UniProt Q9HBX9); experiment: OVCAR5 cAMP assay (HTRF), RXFP1 agonist activity; format: cell-based; conditions: for EC50: OVCAR5 cells, cAMP HTRF, read-out: EC50 (nM), OVCAR 5 cells (cAMP); for Emax: OVCAR-5, maximal cAMP relative to H2-relaxin maximum (100%), read-out: EMax, OVCAR 5 cells (cAMP)
T1 construct: OVCAR5 cells expressing endogenous RXFP1; endogenous in cells; host or cells: OVCAR5 cells
T1 sequence (Q9HBX9 1-757): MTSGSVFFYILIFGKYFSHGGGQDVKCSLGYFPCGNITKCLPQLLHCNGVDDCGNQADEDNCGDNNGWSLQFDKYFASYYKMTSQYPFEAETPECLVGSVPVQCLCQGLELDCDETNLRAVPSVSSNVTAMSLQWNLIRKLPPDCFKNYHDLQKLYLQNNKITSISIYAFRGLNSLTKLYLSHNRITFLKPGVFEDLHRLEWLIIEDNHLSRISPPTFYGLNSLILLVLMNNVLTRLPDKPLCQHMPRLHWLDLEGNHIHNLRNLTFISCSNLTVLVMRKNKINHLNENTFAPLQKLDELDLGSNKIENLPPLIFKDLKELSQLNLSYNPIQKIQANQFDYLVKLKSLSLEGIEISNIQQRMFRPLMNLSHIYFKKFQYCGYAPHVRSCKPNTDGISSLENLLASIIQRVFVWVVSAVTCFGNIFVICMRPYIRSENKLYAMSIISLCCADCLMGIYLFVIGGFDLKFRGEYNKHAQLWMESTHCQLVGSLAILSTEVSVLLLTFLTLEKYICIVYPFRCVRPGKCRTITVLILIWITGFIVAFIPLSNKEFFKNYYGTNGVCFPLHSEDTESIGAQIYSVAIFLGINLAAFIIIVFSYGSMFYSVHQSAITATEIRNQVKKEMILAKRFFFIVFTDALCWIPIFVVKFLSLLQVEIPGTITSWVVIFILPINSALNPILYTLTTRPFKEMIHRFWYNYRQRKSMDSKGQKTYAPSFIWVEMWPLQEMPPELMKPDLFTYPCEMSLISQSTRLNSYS
Outline: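 OVCAR5 cells (endogenous RXFP1) pretreated 40 min at 37° C with 1 mM IBMX, then exposed to peptides in serum-free medium for 30 min at 37° C. Lysate cAMP read by HTRF; EC50 from variable-slope sigmoidal fit; Emax as % of H2-relaxin maximal cAMP in same run.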

[1] = Pharmacokinetic (PK) determination after i.v. or s.c. administration to rats; format: in vivo, Sprague Dawley rats; conditions: Sprague Dawley, Rat PK; for C0 / half-life: iv, 1 mg/kg i.v.; for C0: extrapolated plasma concentration at t=0, read-out: C0; for half-life / Cmax / Tmax / bioavailability: plasma; for half-life: read-out: T½ (converted); for Cmax / Tmax: sc, 3 mg/kg s.c.; for bioavailability: subcutaneous, 3 mg/kg s.c. vs 1 mg/kg i.v., dose-corrected AUC ratio
Outline: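 Sprague Dawley rats received peptide in PBS at 1 mg/kg i.v. or 3 mg/kg s.c., dose corrected for salts, solvent and purity. Plasma analysed by LC/MS after protein precipitation; non-compartmental PK, BLQ values set to zero, F% as dose-corrected s.c./i.v. AUC ratio.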

| EC50 (RXFP1) | Emax (RXFP1) | C0 [1] | half-life [1] | Cmax [1] | Tmax [1] | bioavailability [1] | Structure (SMILES) |
| --- | --- | --- | --- | --- | --- | --- | --- |
| 0.08 nM | 80% | 4250 nM | 1.16 h | 1450 nM | 8 h | 78% | CCCCCCCCCCCCCCCCCC(=O)N[C@@H](CCC(=O)NCCOCCOCC(=O)N[C@@H](CCC(=O)N[C@@H](CCC(=O)N[C@@H](CCC(=O)NCCOCCOCC(=O)NCCOCCOCC(=O)NCCCC[C@H](NC(=O)[C@H](CCCCN)NC(=O)[C@H](CCCCN)NC(=O)[C@H](CCCNC(=N)N)NC(=O)C(C)(C)NC(=O)[C@H](CO)NC(=O)[C@H](Cc1c[nH]c2ccccc12)NC(=O)[C@@H](NC(=O)[C@H](CO)NC(=O)[C@H](CCCC)NC(=O)CNC(=O)[C@H](CCC(=O)O)NC(=O)C(C)(C)NC(=O)C(C)(C)NC(=O)[C@@H](NC(=O)[C@H](CCCCNC(C)=O)NC(=O)[C@H](C)NC(=O)[C@H](CCCNC(=N)N)NC(=O)[C@@H](NC(=O)[C@H](CCCCN)NC(=O)[C@H](CCC(=O)O)NC(=O)[C@H](CCCNC(=N)N)NC(=O)CNC(=O)[C@H](CCC(=O)O)NC(=O)[C@H](CC(C)C)NC(C)=O)C(C)C)[C@@H](C)CC)[C@@H](C)O)C(N)=O)C(=O)O)C(=O)O)C(=O)O)C(=O)O [compound 102] (Ac-LEGREKVRAK(Ac)I[Aib][Aib]EG[Nle]STWS[Aib]RKKK([AEEA-AEEA-γGlu-γGlu-γGlu-AEEA-γGlu-Stearoyl])-NH2) |
|  | 83% | 5560 nM | 2.55 h | 1710 nM | 6 h | 40% | CCCCCCCCCCCCCCCCCC(=O)N[C@@H](CCC(=O)N[C@@H](CCC(=O)N[C@@H](CCC(=O)NCCCC[C@H](NC(=O)CCOCCOCCOCCOCCOCCOCCOCCOCCOCCOCCOCCOCCNC(=O)[C@H](CCCCNC(C)=O)NC(=O)[C@H](CCCCN)NC(=O)[C@H](CCCNC(=N)N)NC(=O)C(C)(C)NC(=O)[C@H](CO)NC(=O)[C@H](Cc1cccc2ccccc12)NC(=O)[C@@H](NC(=O)[C@H](CO)NC(=O)[C@H](CCCC)NC(=O)CNC(=O)[C@H](CCC(=O)O)NC(=O)C(C)(C)NC(=O)C(C)(C)NC(=O)[C@@H](NC(=O)[C@H](CCCCNC(C)=O)NC(=O)C(C)(C)NC(=O)[C@H](CCCNC(=N)N)NC(=O)[C@@H](NC(=O)[C@H](CCCCN)NC(=O)[C@H](CCC(=O)O)NC(=O)[C@H](CCCNC(=N)N)NC(=O)CNC(=O)[C@H](CCC(=O)O)NC(=O)[C@H](CC(C)C)NC(C)=O)C(C)C)[C@@H](C)CC)[C@@H](C)O)C(N)=O)C(=O)O)C(=O)O)C(=O)O [compound 37] (Ac-LEGREKVR[Aib]K(Ac)I[Aib][Aib]EG[Nle]ST[1Nal]S[Aib]RKK(Ac)[PEG12]K([γGlu-γGlu-γGlu-Stearoyl])-NH2) |
| 0.07 nM | 85% | 3000 nM | 3.89 h | 1630 nM | 7 h | 70% | CCCCCCCCCCCCCCCCCC(=O)N[C@@H](CCC(=O)N[C@@H](CCC(=O)N[C@@H](CCC(=O)NCCOCCOCC(=O)NCCOCCOCC(=O)NCCOCCOCC(=O)NCCCC[C@H](NC(=O)[C@H](CCCCN)NC(=O)[C@H](CCCNC(=N)N)NC(=O)C(C)(C)NC(=O)[C@H](CO)NC(=O)[C@H](Cc1c[nH]c2ccccc12)NC(=O)[C@@H](NC(=O)[C@H](CO)NC(=O)[C@H](CCCC)NC(=O)CNC(=O)[C@H](CCC(=O)O)NC(=O)C(C)(C)NC(=O)C(C)(C)NC(=O)[C@@H](NC(=O)[C@H](CCC(N)=O)NC(=O)[C@H](C)NC(=O)[C@H](CCCNC(=N)N)NC(=O)[C@@H](NC(=O)[C@H](CCCCN)NC(=O)[C@H](CCC(=O)O)NC(=O)[C@H](CCCNC(=N)N)NC(=O)CNC(=O)[C@H](CCC(=O)O)NC(=O)[C@H](CC(C)C)NC(C)=O)C(C)C)[C@@H](C)CC)[C@@H](C)O)C(N)=O)C(=O)O)C(=O)O)C(=O)O [compound 74] (Ac-LEGREKVRAQI[Aib][Aib]EG[Nle]STWS[Aib]RKK([AEEA-AEEA-AEEA-γGlu-γGlu-γGlu-Stearoyl])-NH2) |
| 0.03 nM | 91% | 4100 nM | 3.7 h | 1570 nM | 8 h | 62% | CCCCCCCCCCCCCCCCCC(=O)N[C@@H](CCC(=O)N[C@@H](CCC(=O)N[C@@H](CCC(=O)N[C@@H](CCC(=O)NCCCC[C@H](NC(=O)CCOCCOCCOCCOCCOCCOCCOCCOCCOCCOCCOCCOCCNC(=O)[C@H](CCCCNC(C)=O)NC(=O)[C@H](CCCCN)NC(=O)[C@H](CCCNC(=N)N)NC(=O)[C@H](CCCCN)NC(=O)[C@](C)(CO)NC(=O)[C@H](Cc1c[nH]c2ccccc12)NC(=O)[C@@H](NC(=O)[C@H](CO)NC(=O)[C@H](CCCC)NC(=O)CNC(=O)[C@H](CCC(=O)O)NC(=O)C(C)(C)NC(=O)C(C)(C)NC(=O)[C@@H](NC(=O)[C@H](CCCCNC(C)=O)NC(=O)[C@H](C)NC(=O)[C@H](CCCNC(=N)N)NC(=O)[C@@H](NC(=O)[C@H](CCCCN)NC(=O)[C@H](CCC(=O)O)NC(=O)[C@H](CCCNC(=N)N)NC(=O)CNC(=O)[C@H](CCC(=O)O)NC(=O)[C@H](CC(C)C)NC(C)=O)C(C)C)[C@@H](C)CC)[C@@H](C)O)C(N)=O)C(=O)O)C(=O)O)C(=O)O)C(=O)O [compound 39] (Ac-LEGREKVRAK(Ac)I[Aib][Aib]EG[Nle]STW[αMeS]KRKK(Ac)[PEG12]K([γGlu-γGlu-γGlu-γGlu-Stearoyl])-NH2) |
| 0.16 nM | 86% | 1800 nM | 1.8 h | 1000 nM | 7 h | 39% | CCCCCCCCCCCCCCCCCC(=O)N[C@@H](CCC(=O)NCCOCCOCC(=O)N[C@@H](CCC(=O)N[C@@H](CCC(=O)NCCOCCOCC(=O)NCCOCCOCC(=O)NCCCC[C@H](NC(=O)[C@H](CCCCNC(C)=O)NC(=O)[C@H](CCCCN)NC(=O)[C@H](CCCNC(=N)N)NC(=O)C(C)(C)NC(=O)[C@H](CO)NC(=O)[C@H](Cc1c[nH]c2ccccc12)NC(=O)[C@@H](NC(=O)[C@H](CO)NC(=O)[C@H](CCCC)NC(=O)CNC(=O)[C@H](CCC(=O)O)NC(=O)C(C)(C)NC(=O)C(C)(C)NC(=O)[C@@H](NC(=O)[C@H](CCCCNC(C)=O)NC(=O)[C@H](C)NC(=O)[C@H](CCCNC(=N)N)NC(=O)[C@@H](NC(=O)[C@H](CCCCN)NC(=O)[C@H](CCC(=O)O)NC(=O)[C@H](CCCNC(=N)N)NC(=O)CNC(=O)[C@H](CCC(=O)O)NC(=O)[C@H](CC(C)C)NC(C)=O)C(C)C)[C@@H](C)CC)[C@@H](C)O)C(N)=O)C(=O)O)C(=O)O)C(=O)O [compound 101] (Ac-LEGREKVRAK(Ac)I[Aib][Aib]EG[Nle]STWS[Aib]RKK(Ac)K([AEEA-AEEA-γGlu-γGlu-AEEA-γGlu-Stearoyl])-NH2) |
|  | 74% | 3700 nM | 6.4 h | 1800 nM | 5 h | 81% | CCCCCCCCCCCCCCCC(=O)N[C@@H](CCC(=O)N[C@@H](CCC(=O)N[C@@H](CCC(=O)NCCCC[C@H](NC(=O)CCOCCOCCOCCOCCOCCOCCOCCOCCOCCOCCOCCOCCNC(=O)[C@H](CCCCN)NC(=O)[C@H](CCCNC(=N)N)NC(=O)C(C)(C)NC(=O)[C@H](CO)NC(=O)[C@H](Cc1c[nH]c2ccccc12)NC(=O)[C@@H](NC(=O)[C@H](CO)NC(=O)[C@H](CCCC)NC(=O)CNC(=O)[C@H](CCC(=O)O)NC(=O)C(C)(C)NC(=O)C(C)(C)NC(=O)[C@@H](NC(=O)[C@H](CCC(N)=O)NC(=O)[C@H](C)NC(=O)[C@H](CCCNC(=N)N)NC(=O)[C@@H](NC(=O)[C@H](CCCCN)NC(=O)[C@H](CCC(=O)O)NC(=O)[C@H](CCCNC(=N)N)NC(=O)CNC(=O)[C@H](CCC(=O)O)NC(=O)[C@H](CC(C)C)NC(C)=O)C(C)C)[C@@H](C)CC)[C@@H](C)O)C(N)=O)C(=O)O)C(=O)O)C(=O)O [compound 24] (Ac-LEGREKVRAQI[Aib][Aib]EG[Nle]STWS[Aib]RK[PEG12]K([γGlu-γGlu-γGlu-Palmitoyl])-NH2) |
